Data published in patent US11912703B2, “6-azaindole compounds” (BRISTOL-MYERS SQUIBB COMPANY, priority 2017, dated 2024).

Assays:
human TLR7 = human TLR7 (Homo sapiens (Human), UniProt Q9NYK1); test: TLR7 inhibition reporter assay (HEK-Blue SEAP); type: cell-based; settings: HEK-Blue cells overexpressing human TLR7, gardiquimod 7.5 μM stimulation
human TLR8 = human TLR8 (Homo sapiens (Human), UniProt Q9NR97); test: TLR8 inhibition reporter assay (HEK-Blue SEAP); settings: read-out: TLR8 IC50; HEK-Blue cells overexpressing human TLR8, R848 15.9 μM stimulation, SEAP reporter;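 also: SEAP driven by IFN-β minimal promoter with five NF-κB and AP-1 sites, compounds tested 0.05 nM to 50 µM, 22 h incubation, inhibition relative to agonist plus DMSO wells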
Sequence of human TLR8 (Q9NR97 27-1041): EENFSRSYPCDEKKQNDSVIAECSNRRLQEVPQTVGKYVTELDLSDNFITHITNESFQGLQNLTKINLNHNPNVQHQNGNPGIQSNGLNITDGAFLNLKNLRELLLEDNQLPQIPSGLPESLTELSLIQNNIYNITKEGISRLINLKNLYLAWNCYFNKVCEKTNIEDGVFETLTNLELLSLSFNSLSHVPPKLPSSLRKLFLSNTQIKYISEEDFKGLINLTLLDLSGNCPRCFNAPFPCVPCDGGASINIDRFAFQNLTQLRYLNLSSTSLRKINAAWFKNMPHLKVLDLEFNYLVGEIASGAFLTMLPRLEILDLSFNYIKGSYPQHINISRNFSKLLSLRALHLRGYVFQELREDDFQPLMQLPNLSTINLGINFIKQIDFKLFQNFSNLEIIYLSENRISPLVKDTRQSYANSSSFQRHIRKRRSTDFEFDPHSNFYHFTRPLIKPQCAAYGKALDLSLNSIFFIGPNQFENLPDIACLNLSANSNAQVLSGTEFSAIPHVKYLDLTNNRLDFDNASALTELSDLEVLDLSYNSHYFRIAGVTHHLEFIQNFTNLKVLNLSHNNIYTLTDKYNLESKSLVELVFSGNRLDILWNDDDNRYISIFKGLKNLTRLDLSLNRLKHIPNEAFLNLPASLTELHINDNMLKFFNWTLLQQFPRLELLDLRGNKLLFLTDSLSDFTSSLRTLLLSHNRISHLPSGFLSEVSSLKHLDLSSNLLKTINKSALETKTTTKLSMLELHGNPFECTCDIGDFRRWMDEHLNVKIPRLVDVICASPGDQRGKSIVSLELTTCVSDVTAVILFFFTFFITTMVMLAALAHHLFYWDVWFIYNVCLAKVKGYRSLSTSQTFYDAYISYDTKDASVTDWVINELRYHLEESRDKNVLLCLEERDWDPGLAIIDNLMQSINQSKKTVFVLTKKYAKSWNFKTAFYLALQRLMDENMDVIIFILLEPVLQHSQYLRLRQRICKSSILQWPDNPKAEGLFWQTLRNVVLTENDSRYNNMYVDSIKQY

human TLR9 = human TLR9 (Homo sapiens (Human), UniProt Q9NR96); test: TLR9 inhibition reporter assay (HEK-Blue SEAP); settings: read-out: TLR9 IC50; HEK-Blue cells overexpressing human TLR9, ODN2006 5 nM stimulation, SEAP reporter;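 also: SEAP driven by IFN-β minimal promoter carrying five NF-κB and AP-1 sites, 22 h at 37 °C, compounds 0.05 nM–50 µM, inhibition scaled between agonist-plus-DMSO and reference-inhibitor wells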
Sequence of human TLR9 (Q9NR96 26-1032): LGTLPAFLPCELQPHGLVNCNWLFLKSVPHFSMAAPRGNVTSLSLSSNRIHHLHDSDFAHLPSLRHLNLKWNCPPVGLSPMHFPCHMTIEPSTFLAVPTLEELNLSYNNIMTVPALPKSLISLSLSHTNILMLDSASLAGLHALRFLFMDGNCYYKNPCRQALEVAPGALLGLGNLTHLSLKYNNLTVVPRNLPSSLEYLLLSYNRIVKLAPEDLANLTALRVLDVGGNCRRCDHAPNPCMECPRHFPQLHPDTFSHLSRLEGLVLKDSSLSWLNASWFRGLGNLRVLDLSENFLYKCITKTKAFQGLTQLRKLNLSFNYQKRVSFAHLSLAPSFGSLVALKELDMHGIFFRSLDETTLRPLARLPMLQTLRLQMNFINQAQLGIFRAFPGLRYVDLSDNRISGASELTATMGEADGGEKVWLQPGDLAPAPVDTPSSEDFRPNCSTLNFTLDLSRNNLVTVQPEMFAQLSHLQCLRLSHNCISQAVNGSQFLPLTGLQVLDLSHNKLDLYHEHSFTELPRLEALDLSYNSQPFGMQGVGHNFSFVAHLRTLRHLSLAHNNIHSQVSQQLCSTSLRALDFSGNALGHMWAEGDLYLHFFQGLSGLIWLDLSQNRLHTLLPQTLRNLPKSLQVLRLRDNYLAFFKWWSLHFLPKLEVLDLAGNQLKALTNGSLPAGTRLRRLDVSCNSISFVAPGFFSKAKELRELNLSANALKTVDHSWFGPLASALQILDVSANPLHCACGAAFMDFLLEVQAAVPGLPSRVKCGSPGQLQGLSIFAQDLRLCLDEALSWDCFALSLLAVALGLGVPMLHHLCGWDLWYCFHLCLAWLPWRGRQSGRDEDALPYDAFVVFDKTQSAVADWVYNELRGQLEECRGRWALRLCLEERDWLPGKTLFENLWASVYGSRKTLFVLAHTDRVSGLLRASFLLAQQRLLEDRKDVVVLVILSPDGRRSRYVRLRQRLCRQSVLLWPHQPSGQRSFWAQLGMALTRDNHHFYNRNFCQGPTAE

Sequence of human TLR7 (Q9NYK1 27-1049): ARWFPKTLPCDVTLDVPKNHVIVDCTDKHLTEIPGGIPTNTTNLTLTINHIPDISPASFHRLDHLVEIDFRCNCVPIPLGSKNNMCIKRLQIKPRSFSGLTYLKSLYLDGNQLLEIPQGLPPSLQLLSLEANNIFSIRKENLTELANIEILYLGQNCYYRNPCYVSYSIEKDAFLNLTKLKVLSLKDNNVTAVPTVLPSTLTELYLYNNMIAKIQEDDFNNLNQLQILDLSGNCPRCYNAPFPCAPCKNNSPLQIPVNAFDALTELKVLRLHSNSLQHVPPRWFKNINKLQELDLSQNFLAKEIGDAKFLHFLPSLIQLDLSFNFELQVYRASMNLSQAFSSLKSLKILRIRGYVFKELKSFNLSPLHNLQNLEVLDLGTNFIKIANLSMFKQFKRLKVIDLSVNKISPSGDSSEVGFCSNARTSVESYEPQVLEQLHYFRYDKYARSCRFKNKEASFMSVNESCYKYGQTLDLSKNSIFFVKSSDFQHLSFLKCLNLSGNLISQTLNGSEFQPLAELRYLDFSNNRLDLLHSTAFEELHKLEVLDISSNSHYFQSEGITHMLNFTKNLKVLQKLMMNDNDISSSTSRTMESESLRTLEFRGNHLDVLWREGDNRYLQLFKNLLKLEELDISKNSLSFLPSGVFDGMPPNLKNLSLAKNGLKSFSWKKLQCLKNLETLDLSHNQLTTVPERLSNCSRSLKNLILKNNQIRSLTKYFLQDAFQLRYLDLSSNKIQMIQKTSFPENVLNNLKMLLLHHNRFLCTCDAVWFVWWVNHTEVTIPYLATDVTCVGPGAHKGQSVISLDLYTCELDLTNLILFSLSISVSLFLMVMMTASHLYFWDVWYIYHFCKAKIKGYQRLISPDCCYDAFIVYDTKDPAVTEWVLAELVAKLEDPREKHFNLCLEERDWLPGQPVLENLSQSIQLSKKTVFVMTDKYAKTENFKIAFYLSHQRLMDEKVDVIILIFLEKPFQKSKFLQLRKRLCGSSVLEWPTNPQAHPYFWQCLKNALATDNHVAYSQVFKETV

| SMILES | IC50 (human TLR7) | IC50 (human TLR8) | IC50 (human TLR9) |
| --- | --- | --- | --- |
| Cc1c(-c2[nH]c3cnc(C4CCC(NC5COC5)CC4)c(C)c3c2C(C)C)cn2ncnc2c1C (stereo not drawn) [Example 91] | 0.04 µM | 0.027 µM | 0.676 µM |
| Cc1cc(-c2[nH]c3cnc(N4CCC(N5CCC5)CC4)c(F)c3c2C(C)C)cn2ncnc12 [Example 70] | 0.00023 µM | 0.00078 µM | 4 µM |
| Cc1c(-c2[nH]c3cnc(N4CC5(CNC5)C4)c(F)c3c2C(C)C)cn2ncnc2c1C [Example 392, 6-(4-fluoro-3-isopropyl-5-(2,6-diazaspiro[3.3]heptan-2-yl)-1H-pyrrolo[2,3-c]pyridin-2-yl)-7,8-dimethyl-[1,2,4]triazolo[1,5-a]pyridine] | 0.024 µM | 0.013 µM | 8.84 µM |
| COC(C)(C)CNC1CCN(c2ncc3[nH]c(-c4cn5ncnc5c(C)c4C)c(C(C)C)c3c2C)CC1 [Example 173] | 0.0015 µM | 0.00054 µM | 0.653 µM |
| Cc1c(-c2[nH]c3cnc(C4CCC(NC5CCOC5)CC4)cc3c2C(C)C)cn2ncnc2c1C (stereo not drawn) [Example 327] | 0.0071 µM | 0.017 µM | 0.771 µM |
| Cc1c(-c2[nH]c3cnc(C4CCC(N5CCC5)CC4)c(F)c3c2C(C)C)cn2ncnc2c1C (stereo not drawn) [Example 165] | 0.0004 µM | 0.00062 µM | 0.905 µM |
| Cc1cc(-c2[nH]c3cnc(N4CCC(NCC5(C)COC5)CC4)c(F)c3c2C(C)C)cn2ncnc12 [Example 129] | 0.00075 µM | 0.00015 µM | 5.9 µM |
| CNC(=O)CN(C)C1CCN(c2ncc3[nH]c(-c4cc(C)c5ncnn5c4)c(C(C)C)c3c2F)CC1 [Example 259] | 0.0021 µM | 0.0026 µM | 16.8 µM |
| CCN(C)C1CCC(c2ncc3[nH]c(-c4cc(C)c5ncnn5c4)c(C(C)C)c3c2F)CC1 (stereo not drawn) [Example 163] | 0.00039 µM | 0.00087 µM | 1.32 µM |
